According to US20240335404A1, “SUBSTITUTED ESTERS CONTAINING POLYOLS AND SACCHARIDES FOR TREATING HEPATOTOXICITY AND FATTY LIVER DISEASES” (SINEW PHARMA INC., priority 2015, published 2024):
Where two headings read alike, the source gives them in different places. One block for each compound: values may come before it.

Assays:
HepG2 fatty liver cells = assay: TG content in oleic acid-induced fatty liver cells from HepG2; format: cell-based, human; conditions: tested substances 1.0 μM
Protocol: The activity of the various ingredients as described herein, including mannitol and sucralose and others, in reduction of fat content was analyzed by using human hepatoma cell line Hep G2.
HepG2 cell lines (15×10^6 cells) were cultured in DMEM culture No. B, incubated in an incubator with 5% CO2 at 37° C. for 24 hours, cultured in DMEM culture No. C (serum-free medium) for 24 hours, and finally cultured in DMEM culture No. D (containing oleate/albumin complex) for another 48 hours to induce HepG2 cell lines to form fatty liver cells.
HepG2 cell lines were divided into six groups, including: (1) Blank: no treatment; (2) DMSO group: cells from Blank were treated with dimethyl sulfoxide (DMSO); (3) Control: induction with oleic acid to form fatty liver cells; (4) Vehicle group: fatty liver cells formed by induction with oleic acid were treated with DMSO; (5) Positive control: fatty liver cells were treated with silyrnarin; and (6) Test Group: fatty liver cells were treated with various compounds of the present invention.
After incubation for 72 hours, the treated cells from each group were successively washed twice in PBS, and then incubated with 0.5 ml of trypsin/EDTA for 3 minutes. Afterwards, the cells were scraped with 2 ml of PBS and then transferred to the centrifuge tube to be shattered by ultrasonic. A volume of 20 μl cell extracts was taken to determine the content of protein. TG determination was performed using commercially available combination of agents (Randox). The TG content obtained above was divided by the protein content to get a ratio, which represented the relative content of TG in cells.
The equation for calculating reduction rate (%) of TG was as follows: [1−(TG content of Test Group−TG content of Blank)/(TG content of Oleic acid induction Group−TG content of Blank)]×100%.

CYP2E1 = CYP2E1 (Homo sapiens, UniProt P05181); conditions: microsomes, 30 min, pH 7.4
Protocol: After addition of the test sample, the amount of CYP450 isozyme metabolite standard 6-OH-CZX (6-Hydroxy-Chlorzoxazone) is specific used for calculation of the CYP450 isozyme (CYP2E1) inhibition ratio of the test sample by using the amount of 6-OH-CZX of the control group as the baseline.
All samples were tested in triplicate. To determine the percentage inhibition, each test compound was dissolved in 1, 2, 4 μg/mL to three different concentrations. The CYP2E1 activity levels in the presence of the test compounds were compared with the control incubations. The 500-μL reaction mixture, containing 0.5 mg of microsomal protein, was incubated with 320 μM CZX in the presence of 5 mM MgCl2 and 1 mM NADPH in 50 mM phosphate buffer with pH 7.4 at 37° C. for 30 min. The reaction was terminated by ice-cold acetonitrile, and then 4-hydroxyl tolbutamide was added as an internal standard. The organic phase was evaporated to dryness and reconstituted into the mobile phase (methanol:water=1:1) prior to liquid chromatography-tandem mass spectrometry (LC-MS/MS) analysis. An API 3000 triple-quadrupole mass spectrometer equipped with an ion-spray (ESI) source was used to determine 6-OH-CZX in the human liver microsomes. The ESI interface was used in the positive-ion mode. The 6-OH-CZX was monitored at a transition of m/z 284.5→185.9.
The CYP450 isozyme activity levels in the presence of the test compounds were compared with the control incubations.

[1] = system: Liver Injuries Induced by CCl4; assay: Liver injuries induced by CCl4 in mice (GSP, AST/ALT, HAI); format: in vivo; conditions: CCl4-induced liver injuries; dose less than or equivalent to 100 mg per person
Protocol: In the normal control, animals were administered with normal saline by intraperitoneal injection. In the control group of CCl4 induced liver injuries, animals were intraperitoneally injected with 10 ml/kg CCl4 (40% in corn oil) to induce hepatotoxicity. In the experimental group, animals were intraperitoneally injected with 10 ml/kg CCl4 (40% in corn oil) to induce hepatotoxicity, and 4 hours later, different ingredients of the present invention were administered by tube feeding. Blood was collected from the mice before administration with the ingredients of the present invention or at 24 hours after administration with the ingredients of the present invention for AST/ALT assays. Finally, animals were sacrificed at day 2 and blood were collected for AST/ALT assay and histological analysis was performed.
On the other hand, other experimental groups of mice were fed with the ingredients of the present invention for 12 weeks and the mice were subjected to GSP tests.
(§1) Liver damage is quantified by measuring plasma AST and ALT activity. AST and ALT are common indicators of hepatotoxicity and are measured by using the Synchron LXi 725 system (Beckman Instruments, U.S.).
Following scarification of the rats, histological analysis was performed. Liver samples were fixed with 10% phosphate-buffered formalin, dehydrated an embedded in paraffin, Sections were prepared in 5 μm thickness and then stained with hematoxylin and eosin and subjected to Periodic acid Schiff stain (PAS). The stained sections were observed under the optic microscope.
After the study was completed, all rats were subjected to GSP test. Rats were i.v. injected with 0.4 g/ml BW galactose solution 0.5 g/kg within 30 seconds and one blood sample was collected at 5, 10, 15, 30, 45 and 60 minutes post injection from the tail vein. Colorimetric galactose dehydrogenase is used to quantify the concentration of galactose and the test concentration ranges from 50 to 1,000 μg/ml. The within-day variation of each concentration is calculated using standard deviation and coefficient of variation (CV) and the maximum allowable coefficient of variation is 10% CV, whereas day-to-day variation is examined by comparing the slope and intercept of calibration curves. The GSP is the blood galactose concentration obtained 60 seconds after stopping the 30-second injection.
All data are represented in mean±standard deviation (SD) and the results are calculated using ANOVA to determine the significance. Statistical Package of the Social Science program (Version 13, SPSS Inc.) is used for calculations followed by post hoc test to examine the least significant difference for multiple comparisons so as to confirm the significant differences between groups and the average difference between groups was significant p<0.05.

[2] = system: Liver Injuries Induced by APAP; assay: Liver injuries induced by APAP in rats (GSP, AST/ALT, HAI, survival); format: in vivo, SD (Sprague-Dawley) rats; conditions: APAP 2,000 mg/kg, 140 mg/kg of NAC followed by 5 × 70 mg/kg NAC at 4 h intervals
Protocol: Male SD (Sprague-Dawley) rats weighing 175-280 g were purchased from the National Laboratory Animal Center (NLAC), Taiwan. The study was conducted in accordance with the Guidelines for Conducting Animal Studies of the National Health Research Institute and all rats were placed in the air/humidity controlled environment under the 12 hours of day/12 hours of night cycle and with unlimited water and food supply. During the course of the study, the weights of rats were monitored continuously with normal water supply.
In the normal control (Group 1), animals were not fed with APAP. In the control group of APAP-induced liver injuries (Group 2), animals were fed with a single dose of APAP in the amount of 2,000 mg per kilogram of body weight to induce hepatotoxicity. In the positive control group of treatment with NAC (Group 3), animals were fed with a single dose of APAP in the amount of 2,000 mg per kilogram of body weight to induce hepatotoxicity, and 4 hours later, a 24-hour treatment period by tube feeding was started, including first administration of 140 mg of NAC (per kilogram of body weight) and later administration of 70 mg of NAC (per kilogram of body weight) every 4 hours for five times. In the experimental group (Group 4), animals were fed with a single dose of APAP in the amount of 2,000 mg per kilogram of body weight to induce hepatotoxicity, and 4 hours later, a 24-hour treatment period by tube feeding was started, including six dosing with the ingredients of the present invention every 4 hours, as follows: • (a) (Group 4.1): administration of mannitol at a dose less than or equivalent to 100 mg per person every 4 hours for 24 hours, • (b) (Group 4.2): administration of double dose of mannitol as in Group 4.1 every 4 hours for 24 hours, • (c) (Group 4.3): administration of sucralose at a dose less than or equivalent to 100 mg per person every 4 hours for 24 hours, • (d) (Group 4.4): administration of double dose of sucralose of Group 4.3 every 4 hours for 24 hours, • (e) (Group 4.5): administration of a combination of 0.5 times the dose of mannitol as in Group 4.1 and 0.5 times the dose of sucralose as in Group 4.3 per kilogram of body weight every 4 hours for 24 hours, • (f) (Group 4.6): administration of a combination of the dose of mannitol as in Group 4.1 and the dose of sucralose as in Group 4.3 every 4 hours for 24 hours, • (g) (Group 4.7): administration of a combination of 1.5 times the dose of mannitol as in Group 4.1 and 1.5 times the dose of sucralose as in Group 4.3 every 4 hours for 24 hours, • (h) (Group 4.8): administration of a combination of double dose of mannitol as in Group 4.1 and double dose of sucralose as in Group 4.3 every 4 hours for 24 hours, and • (i) (Group 4.9): first administration of 140 mg of NAC per kilogram of body weight and later administration of a combination of 70 mg of NAC plus double dose of mannitol as in Group 4.1 and double dose of sucralose as in Group 4.3 every 4 hours for five times.
After the 24-hour treatment period, blood was collected from the tail artery of the rats for AST/SLT assays. Subsequently, rats were subjected to GSP tests. Finally, rats were sacrificed and histological analysis was performed.
After completion of the treatments, rats were sacrificed under ether anesthesia, and blood was collected from the tail artery of the rats and placed in a test tube containing EDTA. The plasma was centrifuged at 13,000 at 4° C. for 15 minutes and the isolated plasma was transferred to Eppendorf tubes in aliquots and stored at −80° C.
as §1
Following scarification of the rats, histological analysis was performed.

Chain of CYP2E1 (P05181 whole entry): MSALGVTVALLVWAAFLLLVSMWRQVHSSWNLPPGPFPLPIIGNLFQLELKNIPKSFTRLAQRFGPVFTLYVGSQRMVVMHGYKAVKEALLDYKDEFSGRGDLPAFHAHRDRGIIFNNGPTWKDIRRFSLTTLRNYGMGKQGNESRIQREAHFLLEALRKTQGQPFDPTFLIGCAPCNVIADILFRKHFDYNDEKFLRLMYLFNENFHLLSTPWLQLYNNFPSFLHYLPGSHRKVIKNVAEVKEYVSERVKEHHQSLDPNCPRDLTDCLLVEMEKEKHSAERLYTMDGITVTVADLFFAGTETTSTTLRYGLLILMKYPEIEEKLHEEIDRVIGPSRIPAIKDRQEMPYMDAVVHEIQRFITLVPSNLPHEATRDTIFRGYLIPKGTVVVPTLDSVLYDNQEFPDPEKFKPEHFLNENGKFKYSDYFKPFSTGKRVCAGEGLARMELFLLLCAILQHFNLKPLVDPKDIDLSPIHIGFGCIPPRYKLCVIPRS

Compound: Oc1cc(O)c2c(c1)O[C@H](c1ccc(O)c(O)c1)[C@@H](O)C2 [(+)-Catechin]
TG reduction rate (%) (HepG2 fatty liver cells): 29.57 ± 4.02%

Compound: Oc1cc(O)c2c(c1)O[C@H](c1ccc(O)c(O)c1)[C@H](O)C2 [(−)-Epicatechin]
TG reduction rate (%) (HepG2 fatty liver cells): 10.76 ± 8.92%

Compound: Oc1cc(O)c2c(c1)O[C@H](c1cc(O)c(O)c(O)c1)[C@H](O)C2 [(−)-Epigallocatechin]
TG reduction rate (%) (HepG2 fatty liver cells): 36.78 ± 6.67%

Compound: COc1ccc(O)c(C(C)(C)C)c1 [Butylated hydroxyanisole]
TG reduction rate (%) (HepG2 fatty liver cells): 6.21 ± 3.8%

CYP 2E1 inhibition ratio (%) (CYP2E1; 10 μM): 11.2 ± 2.4% | CYP 2E1 inhibition ratio (%) (CYP2E1; 50 μM): 51.2 ± 3.2%
Compound: CCN(CC)C(=S)S [DDTC, Diethyldithiocarbamic acid]

Compound: COc1ccc([C@@H]2CC(=O)c3c(O)cc(O[C@@H]4O[C@H](CO[C@@H]5O[C@@H](C)[C@H](O)[C@@H](O)[C@H]5O)[C@@H](O)[C@H](O)[C@H]4O)cc3O2)cc1 [Didymin]
TG reduction rate (%) (HepG2 fatty liver cells): 20.37 ± 12.69%

Compound: O=c1c(O)c(-c2ccc(O)c(O)c2)oc2c(O[C@@H]3O[C@H](CO)[C@@H](O)[C@H](O)[C@H]3O)c(O)cc(O)c12 [Gossypin]
TG reduction rate (%) (HepG2 fatty liver cells): 20.25 ± 4.63%

Compound: COc1ccc([C@@H]2CC(=O)c3c(O)cc(O[C@@H]4O[C@H](CO[C@@H]5O[C@@H](C)[C@H](O)[C@@H](O)[C@H]5O)[C@@H](O)[C@H](O)[C@H]4O)cc3O2)cc1O [Hesperidin]
TG reduction rate (%) (HepG2 fatty liver cells): 34.81 ± 5.25%

Compound: O=c1c(O)c(-c2ccc(O)cc2)oc2cc(O)cc(O)c12 [Kaempferol]
ALT [1]: 128 ± 40 IU/L | AST [1]: 198 ± 105 IU/L | GSP [1]: 456 ± 101 mg/L

Compound: COc1ccc(-c2cc(=O)c3c(O)cc(O[C@@H]4O[C@H](CO[C@@H]5O[C@@H](C)[C@H](O)[C@@H](O)[C@H]5O)[C@@H](O)[C@H](O)[C@H]4O)cc3o2)cc1 [Linarin]
TG reduction rate (%) (HepG2 fatty liver cells): 9.24 ± 12.34%

Compound: O=c1cc(-c2ccc(O)c(O)c2)oc2cc(O[C@@H]3O[C@H](CO)[C@@H](O)[C@H](O)[C@H]3O)cc(O)c12 [Luteolin-7-glucoside]
TG reduction rate (%) (HepG2 fatty liver cells): 19.33 ± 4.59%

Compound: CC(=O)N[C@@H](CS)C(=O)O [NAC, N-acetylcysteine, reference compound]
ALT [2]: 221 ± 69 IU/L | AST [2]: 428 ± 74 IU/L | GSP [2]: 393 ± 68 mg/L | Total HAI score [2]: 4.2 ± 0.8 | Survival (Day 14, n/n) ([2]; Day 14): 3/6

Compound: COc1ccc([C@@H]2CC(=O)c3c(O)cc(O[C@@H]4O[C@H](CO)[C@@H](O)[C@H](O)[C@H]4O[C@@H]4O[C@@H](C)[C@H](O)[C@@H](O)[C@H]4O)cc3O2)cc1O [Neohesperidin]
TG reduction rate (%) (HepG2 fatty liver cells): 13.29 ± 7.21%

Compound: O=C(O)c1ccc(O)c(O)c1 [Protocatechuic acid]
TG reduction rate (%) (HepG2 fatty liver cells): 18.57 ± 7.6%

Compound: C[C@@H]1O[C@@H](Oc2c(-c3ccc(O)c(O)c3)oc3cc(O)cc(O)c3c2=O)[C@H](O)[C@H](O)[C@H]1O [Quercitrin]
TG reduction rate (%) (HepG2 fatty liver cells): 9.15 ± 9.24%

Compound: COc1ccc(-c2cc(=O)c3c(O)cc(O)c(-c4cc(-c5cc(=O)c6c(O)cc(OC)cc6o5)ccc4OC)c3o2)cc1 [Sciadopitysin]
TG reduction rate (%) (HepG2 fatty liver cells): 21.83 ± 5.04%

Compound: O=C([O-])c1ccccc1.[Na+] [Sodium benzoate]
TG reduction rate (%) (HepG2 fatty liver cells): 14.35 ± 4.86%

Compound: O=S(=O)([O-])NC1CCCCC1.[Na+] [Sodium cyclamate]
TG reduction rate (%) (HepG2 fatty liver cells): 4.77 ± 4.49%

Compound: COc1c(O)cc(O)c2c(=O)cc(-c3ccccc3)oc12 [Wongonin]
TG reduction rate (%) (HepG2 fatty liver cells): 20.78 ± 1.12%

Compound: O=c1c(O)c(-c2ccc(O)c(O)c2)oc2cc(O)cc(O)c12 [quercetin]
ALT [1]: 93 ± 26 IU/L | AST [1]: 115 ± 40 IU/L | GSP [1]: 286 ± 70 mg/L | Total HAI score [1]: 1.1 ± 0.7

Compound: (−)-Epicatechin-3-gallate
TG reduction rate (%) (HepG2 fatty liver cells): 32.7 ± 4.33%

Compound: epigallocetechin-3-gallate
ALT [1]: 95 ± 36 IU/L | AST [1]: 144 ± 49 IU/L | GSP [1]: 312 ± 140 mg/L | Total HAI score [1]: 1.7 ± 0.9
